Data on 14 molecules can be found in US20260049071A1, “PROTEIN TYROSINE KINASE INHIBITOR AND MEDICAL USE THEREOF” (BEYANG THERAPEUTICS CO., LTD., priority 2022, published 2026).

The target in one data set is KDR (VEGFR2) (Homo sapiens (Human), UniProt P35968). Description: Kinase inhibition, Mobility Shift Assay (VEGFR2). The format is biochemical. The essentials: (§1)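 Mobility shift assay: each kinase preincubated 10 min at room temperature with compound, then reacted with FAM-labeled peptide, MgCl2 and ATP at 28° C. for varying times. Substrate-to-product conversion read on Caliper; % inhibition normalised to no-kinase and DMSO controls, and IC50 fitted.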
Chain of KDR (VEGFR2) (P35968 790-1356): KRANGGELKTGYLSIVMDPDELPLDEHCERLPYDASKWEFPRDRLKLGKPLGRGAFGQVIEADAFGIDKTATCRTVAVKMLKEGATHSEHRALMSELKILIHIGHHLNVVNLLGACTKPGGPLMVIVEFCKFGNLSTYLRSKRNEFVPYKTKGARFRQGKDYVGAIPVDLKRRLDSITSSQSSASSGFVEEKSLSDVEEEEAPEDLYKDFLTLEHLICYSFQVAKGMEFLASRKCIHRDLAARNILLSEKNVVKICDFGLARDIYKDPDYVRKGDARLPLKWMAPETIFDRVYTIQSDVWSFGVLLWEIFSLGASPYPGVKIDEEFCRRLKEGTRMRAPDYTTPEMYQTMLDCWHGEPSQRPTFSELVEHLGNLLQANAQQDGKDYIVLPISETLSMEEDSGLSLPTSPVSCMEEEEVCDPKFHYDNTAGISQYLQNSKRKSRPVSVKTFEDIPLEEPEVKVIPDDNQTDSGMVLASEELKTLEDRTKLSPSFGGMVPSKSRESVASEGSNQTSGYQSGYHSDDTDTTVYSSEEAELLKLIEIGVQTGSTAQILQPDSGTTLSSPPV

The next data set addresses EGFR (Homo sapiens (Human), UniProt P00533). Description: Kinase inhibition, Mobility Shift Assay (EGFR). The data set is classed as biochemical. An outline of the steps:
as §1

Data set [1] addresses VEGFR2 autophosphorylation (pVEGFR2) in HUVEC cells (Homo sapiens (Human), UniProt P35968). Description: Inhibition of VEGF-induced VEGFR2 autophosphorylation in HUVEC cells (ELISA). The data set is classed as cell-based. As to conditions: 50 ng/ml human VEGF, compound 1 h. From the text: Vascular endothelial growth factor receptor 2 (VEGFR2) is a primary receptor for VEGF-induced endothelial cell signaling. After ligand binding, VEGFR2 is autophosphorylated and activated. The main function of signaling from VEGFR2 is to induce vascularization during development and after tissue injury, and to bypass blocked blood vessels. Pathologically, VEGF and VEGFR2 are involved in tumor angiogenesis and vascular leakage. They are considered to be main participants in many different cancers and ocular diseases that accompany pathological neovascularization. This assay measured the ability of the compounds to inhibit VEGF-induced VEGFR2 autophosphorylation (pVEGFR2) in HUVEC cells by using ELISA.
Culture cells in a cell culture flask to reach a fusion degree of 60%-80% before cell inoculation. Dilute the cell suspension to […] with a pre-warmed complete medium. Add 80 μL of the cell suspension to all wells of a 96-well cell plate (Corning-3599); and incubate the plate overnight at 37° C. in the presence of 5% CO2. Dissolve the compound powder to 10 mM with DMSO and store it in a nitrogen cabinet. Compound dilution plate: Add a reference compound Ponatinib or a compound to be tested to a 96 V-well plate (Axygen-WIpp 2280) at concentrations achieved as follows: performing 3-fold gradient dilution starting from 5 mM (5 μL of 10 mM compound solution plus 5 μL of DMSO) for a total of 8 concentration points. […] Transfer 20 μL of the diluted compound from the intermediate plate to a cell plate. Then, incubate the cell plate for 1 h at 37° C. in the presence of 5% CO2. After the compound was treated for 1 h, add 25 μL of 250 ng/ml human VEGF at a final concentration of 50 ng/ml to a 96-well plate; and incubate the plate for 5 min at 37° C. in the presence of 5% CO2, centrifuge the plate for 10 min at 3,000 rpm, remove the medium and wash the cells once with 300 μL of pre-chilled DPBS per well. Then, centrifuge the plate for 10 min at 4,000 rpm, remove DPBS, and add 110 μL of pre-chilled 1× cell lysis buffer per well to the 96-well plate. Shake the plate for 40 min at 4° C. Then, freeze the plate in a refrigerator at −80° C. On the next day, remove the plate from the refrigerator at −80° C., thaw the plate, centrifuge the plate for 10 min at 3500 rpm, and add 100 μL of the supernatant per well to an ELISA plate. Seal the plate and incubate it for 2 h at 37° C. Wash the wells 4 times with 1× wash buffer. Add 100 μL of recombinant detection antibody per well. Seal the plate, incubate the plate for 1 h at 37° C., and repeat the step of plate washing. Add 100 μL of secondary antibody per well. Seal the plate, incubate the plate for 30 min at 37° C., and repeat the step of plate washing. Add 100 μL of TMB (protected from light) per well. Seal the plate, incubate the plate for 30 min at 37° C., and add 100 μL of the stop solution per well. Gently shake for 30 sec, measure the absorbance with a SpectraMax® 340 PC 384 Absorbance Microplate Reader within 30 min, and read an optical density value at 450 nm. Conduct data analysis using XL Fit software:
Conduct curve fitting using the 4 Parameter Logistic Model or Sigmoidal Dose-Response Model:
X indicating the log value of compound concentration, Y indicating the inhibition ratio (% inhibition), Top indicating the readout of the negative control wells, and bottom indicating the readout of the positive control well.
For orientation: An ELISA detects its analyte on a solid surface through an enzyme-linked reagent.

A further data set has as its system melanin. Description: Binding capacity of compounds to melanin. The data set is classed as in vitro ADME. As to conditions: Sepia officinalis (cuttlefish), melanin suspension (1 mg/mL); 1 mg/mL melanin suspension in PBS pH 7.4, 2 μM compound, 2 h at 37° C.; read-out: Fu % (percentage of free drug, not bound to melanin). An outline of the steps:
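Compound at 2 μM final incubated with 1 mg/mL Sepia melanin suspension in PBS pH 7.4 for 2 h at 37 °C with shaking; blank control in PBS with 0.1% BSA. Supernatant concentrations measured by LC-MS/MS; bound fraction from melanin versus control samples, free fraction as 100 − Fb.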

In the next data set the target is FLT1 (VEGFR1) (Homo sapiens (Human), UniProt P17948). Description: Kinase inhibition, Mobility Shift Assay (VEGFR1). The data set is classed as biochemical. An outline of the steps:
as §1

The next data set addresses FLT4 (VEGFR3) (Homo sapiens (Human), UniProt P35916). In words: Kinase inhibition, Mobility Shift Assay (VEGFR3). The format is biochemical. Here is the method:
This assay directly monitored the ability of compounds to inhibit kinase phosphorylation by measuring non-phosphorylated and phosphorylated substrates in kinase reactions by using Mobility Shift Assays/IMAP™ analysis.
Add the kinase and DTT to 1× kinase buffer to form a 2.5× kinase solution; transfer 10 μL of 2.5× kinase solution to a 384-well reaction plate and add 1× kinase buffer to negative control wells. Incubate the plate for 10 min at room temperature; add FAM-labeled peptides, MgCl2, ATP and other reagents to 1× kinase buffer to form a 2.5× substrate solution; transfer 10 μL of the above 2.5× substrate solution to the 384-well reaction plate; incubate the plate at 28° C. for different times, and add 25 μL of stop solution to the 384-well reaction plate to stop the reaction. Read the conversion ratio data on CaliperEZ Reader II. Convert conversion rates into inhibition ratio data.
“Min” indicates the readout of the control well without the addition of kinase; and “Max” indicates the readout of the control well with the addition of DMSO. Fit IC50 values with XLFit excel add-in version 5.4.0.8.
X indicates the log value of compound concentration, and Y indicates the inhibition ratio (% inhibition).

A value given as a limit tells only on which side of the number the result lay.

The term IC50 denotes the concentration needed to halve the response being measured.

Chain of VEGFR2 autophosphorylation (pVEGFR2) in HUVEC cells (P35968 20-1356): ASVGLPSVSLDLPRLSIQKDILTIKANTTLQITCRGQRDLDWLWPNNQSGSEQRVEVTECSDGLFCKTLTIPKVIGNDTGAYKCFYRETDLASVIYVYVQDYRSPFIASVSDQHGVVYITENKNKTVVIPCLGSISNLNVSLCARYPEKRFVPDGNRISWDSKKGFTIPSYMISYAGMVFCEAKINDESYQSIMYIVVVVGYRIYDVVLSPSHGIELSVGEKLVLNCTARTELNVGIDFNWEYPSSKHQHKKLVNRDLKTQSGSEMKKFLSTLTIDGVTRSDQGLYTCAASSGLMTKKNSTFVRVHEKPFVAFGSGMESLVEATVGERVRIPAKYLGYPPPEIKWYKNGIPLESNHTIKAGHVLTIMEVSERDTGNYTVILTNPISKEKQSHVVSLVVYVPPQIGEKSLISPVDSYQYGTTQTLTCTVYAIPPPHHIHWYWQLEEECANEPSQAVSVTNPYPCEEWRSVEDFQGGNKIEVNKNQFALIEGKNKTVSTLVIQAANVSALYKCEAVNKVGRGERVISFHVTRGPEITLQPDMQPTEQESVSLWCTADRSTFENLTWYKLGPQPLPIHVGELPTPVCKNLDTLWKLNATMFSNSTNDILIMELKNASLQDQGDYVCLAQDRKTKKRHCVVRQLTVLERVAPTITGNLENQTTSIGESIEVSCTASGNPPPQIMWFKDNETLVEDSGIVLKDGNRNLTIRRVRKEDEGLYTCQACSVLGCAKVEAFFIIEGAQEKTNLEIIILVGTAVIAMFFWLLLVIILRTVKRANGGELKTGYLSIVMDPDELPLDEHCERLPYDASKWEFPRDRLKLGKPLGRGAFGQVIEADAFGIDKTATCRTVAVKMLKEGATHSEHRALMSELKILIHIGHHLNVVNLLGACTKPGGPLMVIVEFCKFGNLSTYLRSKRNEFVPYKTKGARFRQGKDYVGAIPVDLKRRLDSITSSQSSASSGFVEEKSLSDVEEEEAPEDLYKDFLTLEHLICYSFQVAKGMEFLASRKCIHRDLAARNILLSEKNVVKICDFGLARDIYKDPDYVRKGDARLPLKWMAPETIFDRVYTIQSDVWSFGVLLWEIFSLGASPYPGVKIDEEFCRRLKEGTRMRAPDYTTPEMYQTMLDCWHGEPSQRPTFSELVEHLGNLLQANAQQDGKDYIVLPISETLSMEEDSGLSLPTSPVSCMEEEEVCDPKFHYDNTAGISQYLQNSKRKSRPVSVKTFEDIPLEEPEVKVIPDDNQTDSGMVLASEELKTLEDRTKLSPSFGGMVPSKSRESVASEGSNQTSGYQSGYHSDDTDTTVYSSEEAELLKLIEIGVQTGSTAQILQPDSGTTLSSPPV
Chain of FLT4 (VEGFR3) (P35916 25-1363): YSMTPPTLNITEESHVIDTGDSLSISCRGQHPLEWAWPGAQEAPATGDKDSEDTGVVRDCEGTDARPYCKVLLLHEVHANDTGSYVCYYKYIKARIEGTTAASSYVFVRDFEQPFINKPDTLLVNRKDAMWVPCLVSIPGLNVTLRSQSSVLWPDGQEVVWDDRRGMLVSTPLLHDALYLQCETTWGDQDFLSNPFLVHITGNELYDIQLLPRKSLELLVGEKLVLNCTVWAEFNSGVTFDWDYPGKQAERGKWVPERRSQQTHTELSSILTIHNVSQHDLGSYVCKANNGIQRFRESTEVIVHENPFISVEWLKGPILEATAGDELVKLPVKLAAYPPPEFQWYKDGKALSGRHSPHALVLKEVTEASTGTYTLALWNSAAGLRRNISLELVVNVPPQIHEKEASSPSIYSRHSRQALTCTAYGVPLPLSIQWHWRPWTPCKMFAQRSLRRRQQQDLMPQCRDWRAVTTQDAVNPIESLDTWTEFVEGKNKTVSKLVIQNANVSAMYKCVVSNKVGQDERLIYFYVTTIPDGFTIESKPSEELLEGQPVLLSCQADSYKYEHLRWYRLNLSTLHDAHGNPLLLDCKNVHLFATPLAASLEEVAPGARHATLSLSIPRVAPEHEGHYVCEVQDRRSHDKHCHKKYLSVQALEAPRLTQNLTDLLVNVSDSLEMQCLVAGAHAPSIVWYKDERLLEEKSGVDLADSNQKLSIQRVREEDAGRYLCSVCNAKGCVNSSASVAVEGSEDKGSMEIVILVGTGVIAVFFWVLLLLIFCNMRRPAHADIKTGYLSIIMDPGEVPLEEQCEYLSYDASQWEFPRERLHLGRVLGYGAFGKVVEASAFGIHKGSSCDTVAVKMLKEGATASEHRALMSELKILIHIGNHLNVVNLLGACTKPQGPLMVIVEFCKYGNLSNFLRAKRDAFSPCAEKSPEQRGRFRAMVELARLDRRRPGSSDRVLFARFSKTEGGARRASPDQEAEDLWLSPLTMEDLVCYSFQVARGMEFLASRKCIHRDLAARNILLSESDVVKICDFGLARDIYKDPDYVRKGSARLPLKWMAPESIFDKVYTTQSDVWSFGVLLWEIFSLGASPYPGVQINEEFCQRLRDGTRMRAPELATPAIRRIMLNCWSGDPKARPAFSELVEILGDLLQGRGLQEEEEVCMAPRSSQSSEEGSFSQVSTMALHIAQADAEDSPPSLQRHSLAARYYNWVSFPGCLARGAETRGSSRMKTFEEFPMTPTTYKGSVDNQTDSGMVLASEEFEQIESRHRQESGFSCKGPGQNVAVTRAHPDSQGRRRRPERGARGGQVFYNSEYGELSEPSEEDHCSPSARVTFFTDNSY
Chain of FLT1 (VEGFR1) (P17948 27-1338): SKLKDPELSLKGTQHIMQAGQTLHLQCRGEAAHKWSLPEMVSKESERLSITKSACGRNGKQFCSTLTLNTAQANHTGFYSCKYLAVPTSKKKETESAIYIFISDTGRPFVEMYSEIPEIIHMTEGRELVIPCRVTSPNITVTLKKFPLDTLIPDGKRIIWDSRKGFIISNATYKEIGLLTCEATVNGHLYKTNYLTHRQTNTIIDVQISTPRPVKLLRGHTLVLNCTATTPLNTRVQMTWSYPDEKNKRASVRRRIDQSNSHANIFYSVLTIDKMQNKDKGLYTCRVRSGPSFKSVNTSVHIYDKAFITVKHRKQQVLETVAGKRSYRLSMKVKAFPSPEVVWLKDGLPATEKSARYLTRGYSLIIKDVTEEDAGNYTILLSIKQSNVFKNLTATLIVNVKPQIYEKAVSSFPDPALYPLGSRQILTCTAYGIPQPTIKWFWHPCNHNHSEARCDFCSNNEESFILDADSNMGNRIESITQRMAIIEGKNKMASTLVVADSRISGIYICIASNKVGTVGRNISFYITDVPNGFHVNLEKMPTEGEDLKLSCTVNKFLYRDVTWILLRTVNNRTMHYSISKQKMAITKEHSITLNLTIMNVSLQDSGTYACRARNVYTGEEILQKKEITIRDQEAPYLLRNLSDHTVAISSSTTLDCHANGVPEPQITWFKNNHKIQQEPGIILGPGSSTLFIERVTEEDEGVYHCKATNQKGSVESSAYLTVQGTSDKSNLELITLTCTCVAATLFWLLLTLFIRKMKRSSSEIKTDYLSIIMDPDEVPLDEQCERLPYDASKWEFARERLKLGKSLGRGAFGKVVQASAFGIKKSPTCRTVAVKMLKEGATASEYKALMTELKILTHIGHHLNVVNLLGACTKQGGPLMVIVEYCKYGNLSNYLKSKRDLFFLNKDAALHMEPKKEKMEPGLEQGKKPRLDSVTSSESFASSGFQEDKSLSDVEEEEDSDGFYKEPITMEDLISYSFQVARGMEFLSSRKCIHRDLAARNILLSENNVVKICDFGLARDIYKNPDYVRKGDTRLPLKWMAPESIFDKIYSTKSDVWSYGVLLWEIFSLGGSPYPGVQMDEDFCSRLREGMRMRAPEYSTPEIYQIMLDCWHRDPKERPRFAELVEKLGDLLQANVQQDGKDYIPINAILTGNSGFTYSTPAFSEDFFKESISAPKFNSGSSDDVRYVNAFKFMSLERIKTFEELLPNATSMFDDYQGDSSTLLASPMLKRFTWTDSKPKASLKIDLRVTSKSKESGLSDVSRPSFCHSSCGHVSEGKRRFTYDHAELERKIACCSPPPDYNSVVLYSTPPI

As for `O=C(NC1CC1)c1ccccc1Sc1ccc2c(/C=C/c3cnn(CCCN4CCCC4)c3)n[nH]c2c1` [Compound I-43, N-cyclopropyl-2-({3-[(E)-2-{1-[3-(pyrrolidin-1-yl)propyl]-1H-pyrazol-4-yl}vinyl]-1H-indazol-6-yl}thio)benzamide], the values for the IC50 (on KDR (VEGFR2); at EGFR; in data set [1]) were no more than 1 nM, 6000 to 60000 nM and no more than 1 nM, respectively. In addition, the fraction unbound at 2 h, 2 μM in the data set on melanin is 0.01 to 0.05.
As for `CNC(=O)c1ccccc1Sc1ccc2c(/C=C/c3ccc(CCN4CCCC4)cn3)n[nH]c2c1` [Compound I-107, N-methyl-2-({3-[(E)-2-{5-[2-(pyrrolidin-1-yl)ethyl]pyridin-2-yl}vinyl]-1H-indazol-6-yl}thio)benzamide], the IC50 at KDR (VEGFR2) was 1 to 10 nM; on EGFR, 6000 to 60000 nM; in data set [1] it was no more than 1 nM. In the data set on melanin, the fraction unbound at 2 h, 2 μM was in the range of 0.01 to 0.05.
Take `O=C(NC1CC1)c1ccccc1Sc1ccc2c(/C=C/c3cc(OCCN4CCCC4)ccn3)n[nH]c2c1` [Compound I-110, N-cyclopropyl-2-({3-[(E)-2-{4-[2-(pyrrolidin-1-yl)ethoxy]pyridin-2-yl}vinyl]-1H-indazol-6-yl}thio)benzamide]: the IC50 at KDR (VEGFR2) was 1 to 10 nM; on EGFR it was 6000 to 60000 nM; in data set [1], 1 to 5 nM.
As for `CN1CCN(c2ccc(/C=C/c3n[nH]c4cc(Sc5ccccc5C(=O)NC5CC5)ccc34)nc2)CC1` [Compound I-38, N-cyclopropyl-2-({3-[(E)-2-[5-(4-methylpiperazin-1-yl)pyridin-2-yl]vinyl]-1H-indazol-6-yl}thio)benzamide], the IC50 is no more than 1 nM on KDR (VEGFR2), 600 to 6000 nM on EGFR, no more than 1 nM on FLT1 (VEGFR1) and no more than 1 nM on FLT4 (VEGFR3). Further, the fraction unbound at 2 h, 2 μM with melanin lay within 0.01 to 0.05.
`CNC(=O)c1ccccc1Sc1ccc2c(/C=C/c3ccc(OCCN4CCCC4)nc3)n[nH]c2c1` [Compound I-19, N-methyl-2-({3-[(E)-2-{6-[2-(pyrrolidin-1-yl)ethoxy]pyridin-3-yl}vinyl]-1H-indazol-6-yl}thio)benzamide]: the IC50 is 1 to 10 nM on KDR (VEGFR2), greater than 60000 nM at EGFR, 1 to 10 nM on FLT1 (VEGFR1) and 1 to 10 nM on FLT4 (VEGFR3). In addition, the fraction unbound at 2 h, 2 μM with melanin lay within 0.01 to 0.05.
Consider `CNC(=O)c1ccccc1Sc1ccc2c(/C=C/c3cncc(OCCN4CCCC4)c3)n[nH]c2c1` [Compound I-22, N-methyl-2-({3-[(E)-2-{5-[2-(pyrrolidin-1-yl)ethoxy]pyridin-3-yl}vinyl]-1H-indazol-6-yl}thio)benzamide], for which the half-inhibitory concentration (IC50) at KDR (VEGFR2) was 10 to 100 nM; at EGFR it was greater than 60000 nM; at FLT1 (VEGFR1) it was 10 to 100 nM; at FLT4 (VEGFR3) it was 10 to 100 nM. For the same molecule, in the data set on melanin, the fraction unbound at 2 h, 2 μM lay within 0.01 to 0.05.
Take `CNC(=O)c1ccccc1Sc1ccc2c(/C=C/c3ccc(OCCC4CCN(C)CC4)cn3)n[nH]c2c1` [Compound I-5, N-methyl-2-({3-[(E)-2-{5-[2-(1-methylpiperidin-4-yl)ethoxy]pyridin-2-yl}vinyl]-1H-indazol-6-yl}thio)benzamide]: the IC50 at KDR (VEGFR2) was no more than 1 nM; on EGFR it was 6000 to 60000 nM; at FLT1 (VEGFR1) it was no more than 1 nM; at FLT4 (VEGFR3), no more than 1 nM. Also, the fraction unbound at 2 h, 2 μM in the data set on melanin was 0.01 to 0.05.
Consider `CNC(=O)c1ccccc1Sc1cnc2c(/C=C/c3ccccn3)n[nH]c2c1` [Compound I-21, N-methyl-2-({3-[(E)-2-(pyridin-2-yl)vinyl]-1H-pyrazolo[4,3-b]pyridin-6-yl}thio)benzamide], for which the half-inhibitory concentration (IC50) on KDR (VEGFR2) was in the range of 10 to 100 nM; at EGFR it was 6000 to 60000 nM; on FLT1 (VEGFR1), 10 to 100 nM; on FLT4 (VEGFR3), 10 to 100 nM. Moreover, the fraction unbound at 2 h, 2 μM in the data set with melanin fell in the range of 0.01 to 0.05.
In the case of `CCNC(=O)c1cccc(F)c1Sc1ccc2c(/C=C/c3cccc(CN4CCCC4)n3)n[nH]c2c1` [Compound I-113, N-ethyl-3-fluoro-2-({3-[(E)-2-{6-[(pyrrolidin-1-yl)methyl]pyridin-2-yl}vinyl]-1H-indazol-6-yl}thio)benzamide], the figures for the 50% inhibitory concentration (IC50) (at KDR (VEGFR2); at EGFR; in data set [1]) were greater than 100 nM, 6000 to 60000 nM and greater than 5 nM, respectively.
`CNC(=O)c1ccccc1Sc1ccc2c(/C=C/c3ccn(CCN4CCCC4)n3)n[nH]c2c1` [Compound I-13, N-methyl-2-({3-[(E)-2-{1-[2-(pyrrolidin-1-yl)ethyl]-1H-pyrazole-3-yl}vinyl]-1H-indazol-6-yl}thio)benzamide]: the IC50 was 1 to 10 nM on KDR (VEGFR2), 6000 to 60000 nM on EGFR, 1 to 10 nM on FLT1 (VEGFR1) and no more than 1 nM on FLT4 (VEGFR3). Besides, the fraction unbound at 2 h, 2 μM in the data set with melanin lay in the range of 0.01 to 0.05.
As to `CNC(=O)c1ccccc1Sc1ccc2c(/C=C/c3ccc(OCCN4CCN(C)CC4)cn3)n[nH]c2c1` [Compound I-4, N-methyl-2-({3-[(E)-2-{5-[2-(4-methylpiperazin-1-yl)ethoxy]pyridin-2-yl}vinyl]-1H-indazol-6-yl}thio)benzamide], the half-maximal inhibitory concentration (IC50) on KDR (VEGFR2) is no more than 1 nM; at EGFR, 6000 to 60000 nM; at FLT1 (VEGFR1) it was no more than 1 nM; at FLT4 (VEGFR3), no more than 1 nM. Moreover, the fraction unbound at 2 h, 2 μM in the data set on melanin was greater than 0.05.
`CNC(=O)c1ccc(F)cc1Sc1ccc2c(/C=C/c3ccc(OCCN4CCCC4)cn3)n[nH]c2c1` [Compound I-35]: the IC50 on KDR (VEGFR2) was 1 to 10 nM; at EGFR it was 6000 to 60000 nM; on FLT1 (VEGFR1) it was 1 to 10 nM; at FLT4 (VEGFR3), 1 to 10 nM. In addition, the fraction unbound at 2 h, 2 μM with melanin lay in the range of 0.01 to 0.05.
Consider `CNC(=O)c1ccccc1Sc1ccc2c(NC(=O)NCCN3CCN(C)CC3)n[nH]c2c1` [Compound I-31], for which the IC50 on KDR (VEGFR2) was greater than 100 nM; on EGFR, greater than 60000 nM; on FLT1 (VEGFR1) it was greater than 100 nM; on FLT4 (VEGFR3), greater than 100 nM. For the same molecule, in the data set with melanin, the fraction unbound at 2 h, 2 μM lay within 0.01 to 0.05.
Turning to `O=C(NC1CC1)c1ccccc1Sc1ccc2c(/C=C/c3cc(CN4CCCC4)ccn3)n[nH]c2c1` [Compound I-115, N-cyclopropyl-2-({3-[(E)-2-{4-[(pyrrolidin-1-yl)methyl]pyridin-2-yl}vinyl]-1H-indazol-6-yl}thio)benzamide], the IC50 on KDR (VEGFR2) is 1 to 10 nM; on EGFR, 6000 to 60000 nM; at FLT1 (VEGFR1), 1 to 10 nM; at FLT4 (VEGFR3), 10 to 100 nM. Also, the fraction unbound at 2 h, 2 μM in the data set on melanin lay within 0.01 to 0.05.
